Source: patent US20230181661A1, “MUSHROOM-CONTAINING CHINESE MEDICINE COMPOUND COMPOSITION FOR KELOID SCAR TISSUE AND APPLICATION THEREOF” (ASIA UNIVERSITY, priority 2021, published 2023)

System: KFS cells
Assay: Cell metabolic activity assay (MTT assay)
Type: cell-based
Details: 6.25 to 100 micromolar concentration
Procedure: KFS cells were obtained from the Biosource Collection and Research Center (BCRC) of the Food Industry Research and Development Institute (Hsinchu, Taiwan). KFS cells were cultured in Dulbecco's modified eagle medium (DMEM) containing 10% FBS, 1.5 g/L sodium bicarbonate, 4 mM L-glutamine, 4.5 g/L glucose, 100 units/mL penicillin G, and 100 μg/mL streptomycin sulfate. All cells were incubated in a humidified environment with 5% CO2 and 37° C. The medium was refreshed every 2 days. KFS cells (2×10^4 cells/well) were seeded in 96-well plates overnight. KFS cells were exposed to different concentrations of a test drug in 100 μL of medium (for example, combination of 10 Chinese medicine ingredients). After 24 hours treatment, 10 μL of 5 mg/mL MTT (3-(4,5-dimethylthiazol-2-yl)-2,5-diphenyltetrazolium bromide) was added to each well. After incubation for 4 hours, cells were washed twice with 1×PBS. Next, 200 μL of dimethyl sulfoxide (DMSO) was added to each well. An absorbance value at 570 nm was determined for each well by using 650 nm as a reference wavelength. Compared with a control group (untreated with reagents), the absorbance may be correlated with the percentage of active cells. The cell metabolic activity rate is calculated as follows: Cell metabolic activity (%)=OD (treatment)/OD (control)×100%.

SMILES	growth of keloid fibroblasts
COc1cc(/C=C/C(=O)CC(=O)/C=C/c2ccc(O)c(OC)c2)ccc1O [Curcumin]	inhibit the growth
Oc1ccc(C=Cc2cc(O)cc(O)c2)cc1 [Resveratrol]	inhibit the growth
